Data as given in patent US8318801B2, “Cinnamic compounds and derivatives therefrom for the inhibition of histone deacetylase” (Naturewise Biotech & Medicals Corporation, priority 2009, dated 2012).
“Also recorded” adds a separate entry of the source.

Columns and labels:
Format in all cases: cell-based
Rat C6 glioma cells = assay: Inhibition of cancer cell growth and change of morphology; settings: Rat C6 glioma cells, 7.5 μg/mL, 48 hrs (FIG. 4)
Procedure: Three cancer cell lines, Rat C6 giloma cells, Human breast cancer MCF-7 cells, and Human lung cancer A549 cells, were cultured in Dulbecco's modified Eagle's medium (DMEM; Gibco) containing 10% fetal bovine serum (FBS) and 1% penicillin/streptomycin. All three cell lines were maintained at 37° C. in a humidified atmosphere of 95% air and 5% CO2. For the experiments, the cells were seeded in 6-well plates. After 24 hours, the cells were treated with different concentrations of the various compounds.
(§1) Five cancer cell lines, Rat C6 giloma cells, Human breast cancer MCF-7 cells, Human glioma Hs683 cells, Human glioblastoma 05-MG cells, and Human lung cancer A549 cells, were cultured in Dulbecco's modified Eagle's medium (DMEM; Gibco) containing 10% fetal bovine serum (FBS) and 1% penicillin/streptomycin, and were kept at 37° C. in a humidified atmosphere of 95% air and 5% CO2. Human breast cancer. MDA-MB-231 cells were cultured in L-15 medium (Gibco) containing 10% fetal bovine serum (FBS), 1% penicillin/streptomycin, and 2 mM glutamine, and were maintained at 37° C. in a humidified atmosphere of 95% air and 0% CO2. For these experiments, the cells were seeded in 6-well plates or a 60-mm dish. After 24 hours, the cells were treated with different concentrations of the various compounds. […] Human glioblastoma 05-MG cells were treated with NBM-C-BCX-OS01 (1.0, 2.0, 4.0 μg/mL) and NBM-C-BMX-OS01 (1.0, 2.0, 4.0 μg/mL) for 72 hours (see FIG. 5(e)). […] The results were counted by a trypan blue exclusion assay (see FIG. 6(b)).

Human glioma Hs683 cells = assay: Inhibition of cancer cell growth; settings: Hs683 cells, 1.0, 2.0 and 4.0 μg/mL, 72 hours (FIG. 8)
Procedure: Their results were counted by a trypan blue exclusion assay (see FIG. 8(e)).
as §1

[1] = test system: human breast cancer MDA-MB-231 cells; assay: Inhibition of cancer cell growth and change of morphology; settings: for inhibition of MDA-MB-231 cells: MDA-MB-231 cells (FIG. 9)
Procedure: Their results were counted by a trypan blue exclusion assay (see FIG. 9(f)).
as §1

[2] = test system: Human lung cancer A549 cells; assay: Cell cycle analysis by flow cytometry (propidium iodide); settings: A549 cells (FIG. 10(a), (b))
Procedure: Human lung cancer A549 cells, Human glioma Hs683 cells and Human glioblastoma 05-MG cells were seeded 1×10^6 cells in a 100-mm dish. After 24 hours of incubation in DMEM+10% BSA, Human lung cancer A549 cells were treated with NBM-HB-OS01 (2.5, 5.0, 7.5, 10.0 μg/mL) for 24 hours and were treated with NBM-C-BCX-OS01 (2.5, 5.0, 7.5 μg/mL) and NBM-C-BMX-OS01 (2.5, 5, 7.5 μg/mL) for 72 hours. Human glioblastoma 05-MG cells were treated with NBM-C-BCX-OS01 (1.0, 2.0, 4.0 μg/mL) and NBM-C-BMX-OS01 (1.0, 2.0, 4.0 μg/mL) for 72 hours. Human glioma Hs683 cells were treated with NBM-C-BCX-OS01 (1.0, 2.0, 4.0 μg/mL). For cell cycle analysis, cells were fixed in 80% ethanol for 1 hour (or overnight) at −20° C. and then incubated with 2 μg/mL RNase A for 30 minutes at 37° C. Cells were stained with propidium iodide ([…] PI) in PBS and analyzed using a Becton Dickinson flow cytometer, BD FACScan and CellQuest acquisition and analysis programs. […] Human glioma Hs683 cells were treated with NBM-C-BCX-OS01 (1.0, 2.0, 4.0 μg/mL) for 72 hours.

[3] = test system: Human breast cancer MCF-7 cells; assay: Cell cycle analysis by flow cytometry; settings: MCF-7 cells (FIG. 10(c) to (e))

SMILES	inhibition of cell growth (Rat C6 glioma cells)	inhibition of cell growth (Human glioma Hs683 cells)	inhibition of MDA-MB-231 cells [1]	cell cycle arrest phase [2]	cell cycle arrest phase [3]	change of cell morphology ([1]; MDA-MB-231 cells, 72 hours (FIG. 6(a)))	inhibition of cell growth ([1]; MDA-MB-231 cells, various concentrations, 72 hrs (FIG. 6(a)))	inhibition of cell growth (Rat C6 glioma cells; listed as NBM-C-BA-OS01 (17d))
COc1ccc(COc2c(/C=C/C(=O)Nc3ccccc3N)ccc(OC)c2CC=C(C)C)cc1 [NBM-C-BMA-OS01, (E)-2-(4-Methoxyhenzoxy)-3-prenyl-4-methoxy-N-(2-aminophenyl) cinamide]	inhibited the Rat C6 glioma cell growth							
COc1ccc(COc2c(/C=C/C(=O)NO)ccc(OC)c2CC=C(C)C)cc1 [NBM-T-BMX-OS01, (E)-2-(4-Methoxyhenzoxy)-3-prenyl-4-methoxy-N-hydroxy cinamide]		inhibition of cell growth	inhibition of human breast cancer MDA-MB-231 cells	arrested the human lung cancer A549 cells on the S and G2/M phases	arrested the human breast cancer MCF-7 cells on the S and G2/M phases			
COc1ccc(/C=C/C(=O)NO)c(OCc2ccc(Br)cc2)c1CC=C(C)C [NBM-T-BBX-OS01, (E)-2-(4-Bromobenzoxy)-3-prenyl-4-methoxy-N-hydroxy cinamide]		inhibition of cell growth	inhibition of human breast cancer MDA-MB-231 cells	arrested the human lung cancer A549 cells on the S and G2/M phases	arrested the human breast cancer MCF-7 cells on the S and G2/M phases			
COc1ccc(/C=C\C(=O)NO)c(OCc2ccc(F)cc2)c1CC=C(C)C [NBM-C-BFX-OS01, (Z)-2-(4-Fluorobenzoxy)-3-prenyl-4-methoxy-N-hydroxycinamide]						changed the morphology of the cells	inhibition of the cell growth of human breast cancer MDA-MB-231 cells was observed; also recorded: inhibited the growth	
CC(C)=CCOc1c(OCc2ccc(Cl)cc2)c(/C=C\C(=O)NO)cc2ccoc12 [NBM-I-BCX-OS01]		inhibition of cell growth	inhibition of human breast cancer MDA-MB-231 cells	arrested the human lung cancer A549 cells on the S and G2/M phases	arrested the human breast cancer MCF-7 cells on the S and G2/M phases			
COc1ccc(/C=C/C(=O)NO)c(OCc2ccc(Cl)cc2)c1CC=C(C)C [NBM-T-BCX-OS01, (E)-2-(4-Chlorobenzoxy)-3-prenyl-4-methoxy-N-hydroxy cinamide]		inhibition of cell growth	inhibition of human breast cancer MDA-MB-231 cells		arrested the human breast cancer MCF-7 cells on the S and G2/M phases			
COc1ccc(/C=C/C(=O)Nc2ccccc2N)c(OCc2ccc(Cl)cc2)c1CC=C(C)C [NBM-C-BCA-OS01, (E)-2-(4-Chlorobenzoxy)-3-prenyl-4-methoxy-N-(2-aminophenyl) cinamide]	inhibited the Rat C6 glioma cell growth							inhibited the Rat C6 glioma cells growth
COc1ccc(/C=C\C(=O)NO)c(OCc2ccc(Br)cc2)c1CC=C(C)C [NBM-C-BBX-OS01, (Z)-2-(4-Bromobenzoxy)-3-prenyl-4-methoxy-N-hydroxycinamide]		inhibition of cell growth	inhibition of human breast cancer MDA-MB-231 cells	arrested the human lung cancer A549 cells on the S and G2/M phases	arrested the human breast cancer MCF-7 cells on the S and G2/M phases			
